Columns and labels:
[1] = Inhibition of HCV genotype 1a NS5A polymerase infected in human HuH7 replicon cells by luciferase reporter gene assay
[2] = Inhibition of HCV genotype 1b NS5B polymerase infected in human HuH7 replicon cells by luciferase reporter gene assay
[3] = Inhibition of HCV genotype 1a NS5A polymerase L31V/Y93H double mutant infected in human HuH7 replicon cells by luciferase reporter gene assay
[4] = Inhibition of HCV genotype 4a NS5B polymerase infected in human HuH7 replicon cells by luciferase reporter gene assay
[5] = Inhibition of HCV genotype 2a NS5B polymerase infected in human HuH7 replicon cells by luciferase reporter gene assay
[6] = Inhibition of HCV genotype 3a NS5B polymerase infected in human HuH7 replicon cells by luciferase reporter gene assay

EC50 [1] [nM]	EC50 [2] [nM]	Compound	EC50 [3] [nM]	other results
102	13	CNC(=O)c1c(-c2ccc(F)cc2)oc2cc3c(cc12)[C@H](C)N(C)C(=O)CN3S(C)(=O)=O		
180	17	CNC(=O)c1c(-c2ccc(F)cc2)oc2cc3c(cc12)C(C)N(C)C(=O)CN3S(C)(=O)=O (centres undefined)		
> 2000	666	CNC(=O)c1c(-c2ccc(F)cc2)oc2cc3c(cc12)[C@@H](C)OC1(CC1)CN3S(C)(=O)=O		
		CS(=O)(=O)N1CCCCc2cc3c(C(=O)NC#N)c(-c4ccc(F)cc4)oc3cc21	> 2000	
		CS(=O)(=O)N1CCCCc2cc3c(C4=NCCN4)c(-c4ccc(F)cc4)oc3cc21	> 2000	
52	12	CNC(=O)c1c(-c2ccc(F)cc2)oc2cc3c(cc12)C(C)OC(CO)CN3S(C)(=O)=O (centres undefined)		EC50 [4]: 32 nM; EC50 [5]: 62 nM; EC50 [6]: 20 nM
	304	CNC(=O)c1c(-c2ccc(F)cc2)oc2cc3c(cc12)CCN3S(C)(=O)=O		
		CS(=O)(=O)N1CCCCc2cc3c(C(=O)NC4CC4)c(-c4ccc(F)cc4)oc3cc21	> 2000	
	850	CS(=O)(=O)N1CCCCc2cc3c(-c4ncn[nH]4)c(-c4ccc(F)cc4)oc3cc21		
688	59	CNC(=O)c1c(-c2ccc(F)cc2)oc2cc3c(cc12)[C@@H](C)N(C)C(=O)CN3S(C)(=O)=O		
	6	CNC(=O)c1c(-c2ccc(F)cc2)oc2cc3c(cc12)C(C)n1nncc1CN3S(C)(=O)=O (centres undefined)		
> 2000		CCNC(=O)c1c(-c2ccc(F)cc2)oc2cc3c(cc12)CCCCN3S(C)(=O)=O		
26	74	CNC(=O)c1c(-c2ccc(F)cc2)oc2cc3c(cc12)C(C)n1ccnc1CN3S(C)(=O)=O (centres undefined)		
100	24	CNC(=O)c1c(-c2ccc(F)cc2)oc2cc3c(cc12)[C@@H](C)O[C@H](CS(C)(=O)=O)CN3S(C)(=O)=O		
	3	CNC(=O)c1c(-c2ccc(F)cc2)oc2cc3c(cc12)[C@H](C)n1nncc1CN3S(C)(=O)=O		
1800	586	CNC(=O)c1c(-c2ccc(F)cc2)oc2cc3c(cc12)[C@@H](C)NC(=O)CN3S(C)(=O)=O		
40	33	CNC(=O)c1c(-c2ccc(F)cc2)oc2cc3c(cc12)C(C)OCC(CO)N3S(C)(=O)=O (centres undefined)		EC50 [4]: 117 nM; EC50 [5]: 141 nM; EC50 [6]: 53 nM
> 2000		CNC(=O)c1c2cc3c(cc2nn1-c1ccc(F)cc1)N(S(C)(=O)=O)CCCC3C (centres undefined)		
	38	CNC(=O)c1c(-c2ccc(F)cc2)oc2cc3c(cc12)[C@@H](C)n1nncc1CN3S(C)(=O)=O		

EC50 [1] [nM]	EC50 [2] [nM]	Compound	EC50 [3] [nM]	other results
554	69	CNC(=O)c1c(-c2ccc(F)cc2)oc2cc3c(cc12)[C@@H](C)O[C@H](CO)CN3S(C)(=O)=O		
> 2000	1210	CNC(=O)c1c(-c2ccc(F)cc2)oc2cc3c(cc12)[C@@H](C)O[C@@H](CS(C)(=O)=O)CN3S(C)(=O)=O		
		CS(=O)(=O)NC(=O)c1c(-c2ccc(F)cc2)oc2cc3c(cc12)CCCCN3S(C)(=O)=O	> 2000	
64	13	CNC(=O)c1c(-c2ccc(F)cc2)oc2cc3c(cc12)[C@H](C)O[C@@H](CO)CN3S(C)(=O)=O		
33	8	CNC(=O)c1c(-c2ccc(F)cc2)oc2cc3c(cc12)C(C)n1nnnc1CN3S(C)(=O)=O (centres undefined)		
		CS(=O)(=O)N1CCCCc2cc3c(C(N)=O)c(-c4ccc(F)cc4)oc3cc21	> 2000	
	26	CNC(=O)c1c(-c2ccc(F)cc2)oc2cc3c(cc12)CCCCCCN3S(C)(=O)=O		
9	7	CNC(=O)c1c(-c2ccc(F)cc2)oc2cc3c(cc12)C(C)OC(CS(C)(=O)=O)CN3S(C)(=O)=O (centres undefined)		EC50 [4]: 17 nM; EC50 [5]: 64 nM; EC50 [6]: 17 nM
130	19	CNC(=O)c1c(-c2ccc(F)cc2)oc2cc3c(cc12)C(C)OC1(CC1)CN3S(C)(=O)=O (centres undefined)		
		CN(C)C(=O)c1c(-c2ccc(F)cc2)oc2cc3c(cc12)CCCCN3S(C)(=O)=O	> 2000	
33	8	CNC(=O)c1c(-c2ccc(F)cc2)oc2cc3c(cc12)C(C)OC(C)CN3S(C)(=O)=O (centres undefined)		
93	13	CNC(=O)c1c(-c2ccc(F)cc2)oc2cc3c(cc12)[C@H](C)OC1(CC1)CN3S(C)(=O)=O		
9	3	CNC(=O)c1c(-c2ccc(F)cc2)oc2cc3c(cc12)[C@H](C)O[C@H](CO)CN3S(C)(=O)=O		EC50 [4]: 9 nM; EC50 [5]: 12 nM; EC50 [6]: 6 nM
	1470	CNC(=O)c1c(-c2ccc(F)cc2)oc2cc3c(cc12)[C@@H](C)O[C@@H](CO)CN3S(C)(=O)=O		
	451	CNC(=O)c1c(-c2ccc(F)cc2)oc2cc3c(cc12)CCCN3S(C)(=O)=O		
	5	CNC(=O)c1c(-c2ccc(F)cc2)oc2cc3c(cc12)[C@H](C)NC(=O)CN3S(C)(=O)=O		
	5	CNC(=O)c1c(-c2ccc(F)cc2)oc2cc3c(cc12)CCCCCN3S(C)(=O)=O		
16	19	CNC(=O)c1c(-c2ccc(F)cc2)oc2cc3c(cc12)C(C)OCC(CS(C)(=O)=O)N3S(C)(=O)=O (centres undefined)		EC50 [4]: 51 nM; EC50 [5]: 134 nM; EC50 [6]: 70 nM
57	13	CNC(=O)c1c(-c2ccc(F)cc2)oc2cc3c(cc12)[C@H](C)O[C@@H](CS(C)(=O)=O)CN3S(C)(=O)=O		

Compound	EC50 [1] [nM]	EC50 [2] [nM]	EC50 [3] [nM]	other results
CNC(=O)c1c(-c2ccc(F)cc2)oc2cc3c(cc12)C(C)=CCCN3S(C)(=O)=O		16	70	
CNC(=O)c1c(-c2ccc(F)cc2)oc2cc3c(cc12)C1CC1CCN3S(C)(=O)=O (centres undefined)	35	9	44	
CNC(=O)c1c(-c2ccc(Oc3ccc(F)cc3)cc2)oc2cc3c(cc12)C(C)CCCN3S(C)(=O)=O (centres undefined)		14	71	
CNC(=O)c1c(-c2ccc(F)cc2)nn2cc3c(cc12)C(C)CCCN3S(C)(=O)=O (centres undefined)		109	523	
CNC(=O)c1c(-c2ccc(F)cc2)oc2cc3c(cc12)[C@@H]1C[C@@H]1CCN3S(C)(=O)=O		7	25	
CNC(=O)c1c(-c2ccc(F)cc2)oc2cc3c(cc12)CCCCN3C(=O)OC		164	722	
CNC(=O)c1c(-c2ccc(F)cc2)oc2cc3c(cc12)C1(CCCN3S(C)(=O)=O)CC1		20	118	
CNC(=O)c1c(-c2ccc(F)cc2OC)oc2cc3c(cc12)C(C)CCCN3S(C)(=O)=O (centres undefined)		56	> 2000	
CS(=O)(=O)N1CCCCc2cc3c(-c4ncc[nH]4)c(-c4ccc(F)cc4)oc3cc21	33	5	59	
CNC(=O)c1c(-c2ccc(F)cc2)oc2cc3c(cc12)CCCCN3C(C)=O	> 2000		> 2000	
CNC(=O)c1c(-c2ccc(F)cc2)oc2cc3c(cc12)C(C)CCCN3S(C)(=O)=O (centres undefined)		3	10	
CNC(=O)c1c(-c2ccc(F)cc2)oc2cc3c(cc12)C(C)N(C)CCN3S(C)(=O)=O (centres undefined)		14	50	
CNC(=O)c1c(-c2ccc(F)cc2)oc2cc3c(cc12)C(=O)CCCN3S(C)(=O)=O		78	318	
CNC(=O)c1c(-c2ccc(F)cc2)oc2cc3c(cc12)[C@H](C)CCCN3S(C)(=O)=O	10	4	9	
CNC(=O)c1c(-c2ccc(F)cc2)oc2cc3c(cc12)[C@H](C)OCCN3S(C)(=O)=O		3	9	
CONC(=O)c1c(-c2ccc(F)cc2)oc2cc3c(cc12)CCCCN3S(C)(=O)=O		31	90	
CNC(=O)c1c(-c2ccc(F)cc2)oc2cc3c(cc12)C(C)NC(=O)CN3S(C)(=O)=O (centres undefined)	19	15	14	
CNC(=O)c1c(-c2ccccc2F)oc2cc3c(cc12)C(C)CCCN3S(C)(=O)=O (centres undefined)		7	11	
CNC(=O)c1c(-c2ccc(F)cc2)nc2cc3c(cn12)C(C)CCCN3S(C)(=O)=O (centres undefined)		182	801	
CNC(=O)c1c(-c2ccc(F)cc2)oc2cc3c(cc12)[C@@H](C)OCCN3S(C)(=O)=O		686	624	
CNC(=O)c1c(-c2ccc(F)cc2)oc2cc3c(cc12)CCCCN3S(C)(=O)=O		17	83	
CNC(=O)c1c(-c2ccc(F)cc2)oc2cc3c(cc12)[C@H]1C[C@H]1CCN3S(C)(=O)=O		> 2000	> 2000	
CNC(=O)c1c(-c2ccc(F)cc2)oc2cc3c(cc12)CCCCN3S(=O)(=O)C1CC1	335	73	423	
CNC(=O)c1c(-c2ccc(F)cc2)oc2cc3c(cc12)[C@@H](C)CCCN3S(C)(=O)=O		46	89	
CNC(=O)c1c(-c2ccc(F)cc2)oc2cc3c(cc12)C(C)OCCN3S(C)(=O)=O (centres undefined)	28	11	21	
CNC(=O)c1c(-c2ccc(F)cc2)oc2cc3c(cc12)C(C)NCCN3S(C)(=O)=O (centres undefined)		43	265	
C=C1CCCN(S(C)(=O)=O)c2cc3oc(-c4ccc(F)cc4)c(C(=O)NC)c3cc21		26	106	
CNC(=O)c1c(-c2ccc(F)cc2F)oc2cc3c(cc12)C(C)CCCN3S(C)(=O)=O (centres undefined)		8	15	
CN(O)C(=O)c1c(-c2ccc(F)cc2)oc2cc3c(cc12)CCCCN3S(C)(=O)=O		298	> 2000	
CNC(=O)c1c(-c2ccc(F)cc2)oc2cc3c(cc12)C(O)CCCN3S(C)(=O)=O (centres undefined)		107	730	
